Laboratory results published in patent US4205163A, “Tylosin derivatives” (Sanraku-Ocean Co., Ltd., priority 1977, dated 1980).
≈ marks a conversion by molar mass, not a printed value.

Tests used:
Experiment in all cases: antimicrobial activity, broth dilution method
Assay type in all cases: cell-based
[1] = system: Staphylococcus aureus SMITH; settings: Staphylococcus aureus SMITH, broth dilution; for MIC: Staphylococcus aureus, read-out: minimum inhibitory concentration (MIC)
Experimental: (§1) Antimicrobial activity of the new antibiotics according to the present invention was measured on various pathogenic microorganisms by the broth dilution mehtod. Tab. […] The new antibiotics show a similar antimicrobial spectrum to that of tylosin as shown in Tab. 4. All the compounds have an excellent antimicrobial activity mainly on gram-positive bacteria. […] Test microorganisms with an asterisk mark (*) in Tab. 4 are all drug-resistant strains that were clinically isolated. More in detail, Staphylococcus aureus MS-8710 is resistant to tylosin, penicillin, tetracycline, erythromycin and leucomycin. Staphylococcus aureus MS-9931 is resistant to tylosin, penicillin, erythromycin, tetracycline, leucomycin, spiramycin and josamycin. And also Streptococcus piogenes is resistant to tylosin, erythromycin, oleandomycin and leucomycin.

[2] = system: Staphylococcus aureus FDA-209P; settings: Staphylococcus aureus FDA-209P, broth dilution; for MIC: Staphylococcus aureus, FDA209P, read-out: minimum inhibitory concentration (MIC)
Experimental: as §1

Sarcina lutea ATCC 9341 = settings: for minimum inhibitory concentration (MIC): Sarcina lutea ATCC 9341; for MIC: Micrococcus luteus, ATCC9341, Sarcina lutea ATCC 9341, read-out: minimum inhibitory concentration (MIC)
Experimental: as §1

[3] = system: Streptococcus pyogenes MH-771; settings: for minimum inhibitory concentration (MIC): Streptococcus pyogenes MH-771, drug-resistant clinical isolate; for MIC: Streptococcus pyogenes, MH771, Streptococcus pyogenes MH-771, drug-resistant clinical isolate, read-out: minimum inhibitory concentration (MIC)
Experimental: as §1

[4] = system: Staphylococcus aureus MS-8710; settings: for minimum inhibitory concentration (MIC): Staphylococcus aureus MS-8710, drug-resistant clinical isolate; for MIC: Staphylococcus aureus, MS8710, Staphylococcus aureus MS-8710, drug-resistant clinical isolate, read-out: minimum inhibitory concentration (MIC)
Experimental: as §1

[5] = system: Staphylococcus aureus MS-9937; settings: Staphylococcus aureus MS-9937, drug-resistant clinical isolate; for MIC: MS9937, read-out: minimum inhibitory concentration (MIC)
Experimental: as §1

[6] = system: Staphylococcus aureus MS-9931; settings: Staphylococcus aureus MS-9931, drug-resistant clinical isolate; for MIC: MS9931, read-out: minimum inhibitory concentration (MIC)
Experimental: as §1

[7] = system: Bacillus cereus ATCC 9634; settings: broth dilution; for minimum inhibitory concentration (MIC): Bacillus cereus ATCC 9634; for MIC: Bacillus cereus, ATCC9634, Bacillus cereus ATCC 9634, read-out: minimum inhibitory concentration (MIC)
Experimental: as §1

Compound	minimum inhibitory concentration (MIC) [1] [µg/mL]	minimum inhibitory concentration (MIC) [2] [µg/mL]	minimum inhibitory concentration (MIC) (Sarcina lutea ATCC 9341) [µg/mL]	minimum inhibitory concentration (MIC) [3] [µg/mL]	minimum inhibitory concentration (MIC) [4] [µg/mL]	minimum inhibitory concentration (MIC) [5] [µg/mL]	minimum inhibitory concentration (MIC) [6] [µg/mL]	minimum inhibitory concentration (MIC) [7] [µg/mL]	MIC [1] [µg/mL]	MIC [2] [µg/mL]	MIC (Sarcina lutea ATCC 9341) [µg/mL]	MIC [3] [µg/mL]	MIC [4] [µg/mL]	MIC [5] [µg/mL]	MIC [6] [µg/mL]	MIC [7] [µg/mL]
3-acetyl-4"-(1-imidazolyl)propionyltylosin [Compound 33]	1.56	1.56	0.78	12.5	25	50	50	1.56								
4"-thienylacetyltylosin [Compound 30]	0.39	0.39	0.19	6.25	12.5	25	25	0.39								
CCC1OC(=O)CC(O)C(C)C(OC2OC(C)C(OC3CC(C)(O)C(O)C(C)O3)C(N(C)C)C2OC(C)=O)C(CC=O)CC(C)C(=O)C=CC(C)=CC1COC1OC(C)C(O)C(OC)C1OC (stereo not drawn) [2'-acetyltylosin, reference compound]									1.56 (≈ 1.63 µM)	1.56 (≈ 1.63 µM)	0.39 (≈ 0.407 µM)	> 200	> 200	200 (≈ 209 µM)	200 (≈ 209 µM)	1.56 (≈ 1.63 µM)
CCC1OC(=O)CC(O)C(C)C(OC2OC(C)C(OC3CC(C)(O)C(O)C(C)O3)C(N(C)C)C2OC(=O)CCl)C(CC=O)CC(C)C(=O)C=CC(C)=CC1COC1OC(C)C(O)C(OC)C1OC (stereo not drawn) [2'-monochloroacetyltylosin, reference compound]									1.56 (≈ 1.57 µM)	1.56 (≈ 1.57 µM)	0.39 (≈ 0.393 µM)	> 200	> 200	200 (≈ 201 µM)	200 (≈ 201 µM)	1.56 (≈ 1.57 µM)
CCC(=O)OC1C(OC2C(CC=O)CC(C)C(=O)C=CC(C)=CC(COC3OC(C)C(O)C(OC)C3OC)C(CC)OC(=O)CC(O)C2C)OC(C)C(OC2CC(C)(O)C(O)C(C)O2)C1N(C)C (stereo not drawn) [2'-propionyltylosin, reference compound]									1.56 (≈ 1.6 µM)	1.56 (≈ 1.6 µM)	0.39 (≈ 0.401 µM)	> 200	> 200	200 (≈ 206 µM)	200 (≈ 206 µM)	1.56 (≈ 1.6 µM)
CCC1OC(=O)CC(OC(C)=O)C(C)C(OC2OC(C)C(OC3CC(C)(O)C(O)C(C)O3)C(N(C)C)C2OC(C)=O)C(CC=O)CC(C)C(=O)C=CC(C)=CC1COC1OC(C)C(O)C(OC)C1OC (stereo not drawn) [3,2'-diacetyltylosin, reference compound]									1.56 (≈ 1.56 µM)	1.56 (≈ 1.56 µM)	0.39 (≈ 0.39 µM)	> 200	> 200	200 (≈ 200 µM)	200 (≈ 200 µM)	1.56 (≈ 1.56 µM)
CCC1OC(=O)CC(O)C(C)C(OC2OC(C)C(OC3CC(C)(O)C(O)C(C)O3)C(N(C)C)C2OC(C)=O)C(CC=O)CC(C)C(=O)C=CC(C)=CC1COC1OC(C)C(OC(=O)CCl)C(OC)C1OC (stereo not drawn) [Compound 1, 2'-acetyl-4'"-monochloracetyltylosin]									1.56 (≈ 1.51 µM)	1.56 (≈ 1.51 µM)	0.78 (≈ 0.754 µM)	200 (≈ 193 µM)	> 200	200 (≈ 193 µM)	200 (≈ 193 µM)	1.56 (≈ 1.51 µM)
CCC1OC(=O)CC(O)C(C)C(OC2OC(C)C(OC3CC(C)(O)C(O)C(C)O3)C(N(C)C)C2OC(C)=O)C(CC=O)CC(C)C(=O)C=CC(C)=CC1COC1OC(C)C(OC(=O)C(Cl)(Cl)Cl)C(OC)C1OC (stereo not drawn) [Compound 2, 2'-acetyl-4'"-trichloroacetyltylosin]									1.56 (≈ 1.41 µM)	1.56 (≈ 1.41 µM)	0.39 (≈ 0.353 µM)	200 (≈ 181 µM)	200 (≈ 181 µM)	100 (≈ 90.6 µM)	100 (≈ 90.6 µM)	1.56 (≈ 1.41 µM)
CCC1OC(=O)CC(OC(C)=O)C(C)C(OC2OC(C)C(OC3CC(C)(O)C(O)C(C)O3)C(N(C)C)C2OC(C)=O)C(CC=O)CC(C)C(=O)C=CC(C)=CC1COC1OC(C)C(OC(=O)CCl)C(OC)C1OC (stereo not drawn) [Compound 3, 3,2'-diacetyl-4'"-monochloroacetyltylosin]									1.56 (≈ 1.45 µM)	1.56 (≈ 1.45 µM)	0.78 (≈ 0.724 µM)	100 (≈ 92.9 µM)	100 (≈ 92.9 µM)	100 (≈ 92.9 µM)	100 (≈ 92.9 µM)	1.56 (≈ 1.45 µM)
CCC1OC(=O)CC(OC(C)=O)C(C)C(OC2OC(C)C(OC3CC(C)(O)C(O)C(C)O3)C(N(C)C)C2OC(C)=O)C(CC=O)CC(C)C(=O)C=CC(C)=CC1COC1OC(C)C(OC(=O)C(Cl)(Cl)Cl)C(OC)C1OC (stereo not drawn) [Compound 4, 3,2'-diacetyl-4'"-trichloroacetyltylosin]									1.56 (≈ 1.36 µM)	1.56 (≈ 1.36 µM)	0.39 (≈ 0.34 µM)	100 (≈ 87.3 µM)	100 (≈ 87.3 µM)	100 (≈ 87.3 µM)	100 (≈ 87.3 µM)	1.56 (≈ 1.36 µM)
CCC1OC(=O)CC(O)C(C)C(OC2OC(C)C(OC3CC(C)(O)C(O)C(C)O3)C(N(C)C)C2OC(C)=O)C(CC=O)CC(C)C(=O)C=CC(C)=CC1COC1OC(C)C(OC(=O)COc2ccccc2)C(OC)C1OC (stereo not drawn) [Compound 5, 2'-acetyl-4'"-phenoxyacetyltylosin]									0.78 (≈ 0.714 µM)	0.78 (≈ 0.714 µM)	0.39 (≈ 0.357 µM)	100 (≈ 91.6 µM)	100 (≈ 91.6 µM)	100 (≈ 91.6 µM)	100 (≈ 91.6 µM)	0.78 (≈ 0.714 µM)
CCOC(=O)OC1C(C)OC(OCC2C=C(C)C=CC(=O)C(C)CC(CC=O)C(OC3OC(C)C(OC4CC(C)(O)C(O)C(C)O4)C(N(C)C)C3OC(C)=O)C(C)C(OC(C)=O)CC(=O)OC2CC)C(OC)C1OC (stereo not drawn) [Compound 6, 3,2'-diacetyl-4'"-carboethoxytylosin]									0.78 (≈ 0.727 µM)	0.78 (≈ 0.727 µM)	0.39 (≈ 0.364 µM)	100 (≈ 93.3 µM)	100 (≈ 93.3 µM)	100 (≈ 93.3 µM)	100 (≈ 93.3 µM)	0.78 (≈ 0.727 µM)
CCCCCC(=O)OC1C(C)OC(OC2C(C)OC(OC3C(CC=O)CC(C)C(=O)C=CC(C)=CC(COC4OC(C)C(O)C(OC)C4OC)C(CC)OC(=O)CC(O)C3C)C(O)C2N(C)C)CC1(C)O (stereo not drawn) [Compound 7, 4"-n-caproyl(or n-hexanoyl)tylosin]									0.78 (≈ 0.769 µM)	0.78 (≈ 0.769 µM)	0.39 (≈ 0.385 µM)	6.25 (≈ 6.16 µM)	12.5 (≈ 12.3 µM)	12.5 (≈ 12.3 µM)	25 (≈ 24.6 µM)	0.78 (≈ 0.769 µM)
CCCCCC(=O)OC1C(C)OC(OC2C(C)OC(OC3C(CC=O)CC(C)C(=O)C=CC(C)=CC(COC4OC(C)C(O)C(OC)C4OC)C(CC)OC(=O)CC(OC(C)=O)C3C)C(O)C2N(C)C)CC1(C)O (stereo not drawn) [Compound 8, 3-acetyl-4"-n-caproyl(or n-hexanoyl)tylosin]									0.78 (≈ 0.738 µM)	0.39 (≈ 0.369 µM)	0.39 (≈ 0.369 µM)	6.25 (≈ 5.92 µM)	25 (≈ 23.7 µM)	25 (≈ 23.7 µM)	25 (≈ 23.7 µM)	0.78 (≈ 0.738 µM)
CCCCCCCC(=O)OC1C(C)OC(OC2C(C)OC(OC3C(CC=O)CC(C)C(=O)C=CC(C)=CC(COC4OC(C)C(O)C(OC)C4OC)C(CC)OC(=O)CC(O)C3C)C(O)C2N(C)C)CC1(C)O (stereo not drawn) [Compound 9, 4"-n-caprylyl(or n-octanoyl)tylosin]									0.78 (≈ 0.748 µM)	0.78 (≈ 0.748 µM)	0.39 (≈ 0.374 µM)	25 (≈ 24 µM)	25 (≈ 24 µM)	25 (≈ 24 µM)	25 (≈ 24 µM)	1.56 (≈ 1.5 µM)
CCCCCCCCCC(=O)OC1C(C)OC(OC2C(C)OC(OC3C(CC=O)CC(C)C(=O)C=CC(C)=CC(COC4OC(C)C(O)C(OC)C4OC)C(CC)OC(=O)CC(O)C3C)C(O)C2N(C)C)CC1(C)O (stereo not drawn) [Compound 10, 4"-n-capryl(or n-decanoyl)tylosin]									1.56 (≈ 1.46 µM)	1.56 (≈ 1.46 µM)	0.78 (≈ 0.729 µM)	50 (≈ 46.7 µM)	100 (≈ 93.4 µM)	100 (≈ 93.4 µM)	50 (≈ 46.7 µM)	1.56 (≈ 1.46 µM)
CCC1OC(=O)CC(O)C(C)C(OC2OC(C)C(OC3CC(C)(O)C(OC(=O)CCC(C)C)C(C)O3)C(N(C)C)C2O)C(CC=O)CC(C)C(=O)C=CC(C)=CC1COC1OC(C)C(O)C(OC)C1OC (stereo not drawn) [Compound 11, 4"-iso-caproyl(or iso-hexanoyl)tylosin]									0.78 (≈ 0.769 µM)	0.78 (≈ 0.769 µM)	0.39 (≈ 0.385 µM)	6.25 (≈ 6.16 µM)	12.5 (≈ 12.3 µM)	12.5 (≈ 12.3 µM)	12.5 (≈ 12.3 µM)	0.78 (≈ 0.769 µM)
CCC1OC(=O)CC(OC(C)=O)C(C)C(OC2OC(C)C(OC3CC(C)(O)C(OC(=O)C(O)c4ccccc4)C(C)O3)C(N(C)C)C2O)C(CC=O)CC(C)C(=O)C=CC(C)=CC1COC1OC(C)C(O)C(OC)C1OC [Compound 18, 3-acetyl-4"-L-(α-hydroxyphenylacetyl)tylosin]									0.78 (≈ 0.714 µM)	0.78 (≈ 0.714 µM)	0.39 (≈ 0.357 µM)		25 (≈ 22.9 µM)			0.78 (≈ 0.714 µM)
